{
  "source": "patent US20220347299A1",
  "about": "“FLUORESCENT SYSTEMS FOR BIOLOGICAL IMAGING AND USES THEREOF” (LIGHTOX LIMITED, priority 2019, published 2022)",
  "tested_on": "HaCaT keratinocytes",
  "experiment": "Co-staining with organelle markers, co-localisation (PCC)",
  "format": "cell-based",
  "settings": "1 μM compound, 30 minutes, BODIPY ER-Tracker Red",
  "method": "To study the localisation of compounds in biological cells, co-staining of compounds of formula I with specific organelle markers (fluorescent dyes and antibodies) within biological cells was conducted. The following compounds were studied: compounds 6, 7, 12, 13, 14 and 15. HaCaT keratinocyte cell lines were used for the following experimental procedures. The cells were incubated in cell culture media (94% Dulbecco's Modified Eagle Medium (DMEM), 5% Foetal Bovine Serum (FBS) and 1% Penicillin Streptomycin solution (Pen-Strep). The cells were plated in 8-well plates, at a concentration of 25,000 cells per ml. 200 μl of cell suspension was added to each well, and the cells were incubated for 2 days before staining and imaging was carried out. In order to visualise the mitochondria, cells were probed with the mitochondrial dye MitoTracker® Deep Red. Cells to be stained were incubated with 200 μl MitoTracker® Deep Red solution (200 nM MitoTracker® and 1 μM Formula I compound in cell culture media) per well (N=3) for 30 minutes. Nile Red was used to identify lipids within the cells. 200 μl Nile Red Lipophilic dye (10 μg/ml Nile Red and 1 μM Formula I compound in cell culture media) was added to each well (N=3) and incubated for 30 minutes. For the detection of lysosomes within the cells, LysoTracker® Red DND-99 dye was used. 200 μl LysoTracker® Red DND-99 (50 nM LysoTracker® and 1 μM Formula I compound solution in cell culture media) was added to each well (N=3) and incubated for 30 minutes. For visualisation of the endoplasmic reticulum (ER), cells were stained with BODIPY® ER-Tracker® Red. 200 μl BODIPY ER-Tracker® Red (1 μM BODIPY® and 1 μM Formula I compound solution in cell culture media) was added to each well (N=3) and incubated for 30 minutes. Following incubation, the cell culture media containing dye was removed, and cells were washed twice with 200 μl phosphate buffered saline (PBS). After washing, 200 μl PBS was added into each well for imaging. For visualisation of the nuclear lamina, cells were probed with an anti-lamin A/C antibody. The cells were plated on 22×22 mm cover slips (10,000 cells/ml) and incubated for 2 days before staining. The cells were washed with PBS to remove excess media before staining. The cells were fixed with 4% paraformaldehyde (PFA) for 10 minutes at room temperature, before being washed twice in PBS for 5 minutes. Following washing, the cells were permeabilised in 0.4% Triton X-100 in PBS for 10 minutes. The cells were subsequently washed three times in PBS for 5 minutes, before being incubated in blocking buffer (1% BSA, 0.1% fish gelatine and 0.1% Triton X-100 in PBS) for 15 minutes at room temperature. The cells were incubated in primary antibody (mouse anti-lamin A/C IgG in blocking buffer) for 1 hour at room temperature. The cells were then washed twice in blocking buffer and incubated in secondary antibody (anti-mouse Alexa-594 IgG in blocking buffer) for 30 minutes at room temperature. Cells were washed twice in PBS for 10 minutes at room temperature. For cell staining with compounds of formula I, 5 μM of the compound of formula I in PBS was added to the cells for 30 minutes at room temperature. Cells were then washed five times for 5 minutes in PBS. Following washing, the cells were mounted onto non-charged microscopy slides using 6 μl Mowiol® per cover slip as mounting media. A Zeiss 880 confocal microscope was used for all the imaging work. [table] Image) Coloc2 software was used to calculate co-localization statistics between the compounds of formula I and the organelle marker images. The background was subtracted from each image and a region of interest (ROI) was used to target the analysis. The point spread function (PSF) of each image was calculated as 2.0 and Coastes' iterations was set to 100. The statistic quantified was the Pearson's Correlation Coefficient (PCC). PCC gives a number ranging from +1 to −1:1=perfect co-localisation; 0=no relationship; and, −1=perfect anti-co-localisation. […]",
  "data": [
    {"smiles": "COC(=O)/C=C/c1ccc(C#Cc2ccc(N(C)CCN)cc2)cc1", "note": "[Compound 12, methyl (2E)-3-[4-(2-{4-[(2-aminoethyl)(methyl)amino]phenyl}ethynyl)phenyl]prop-2-enoate]", "values": [
      {"measurement": "average PCC Value with BODIPY ER-Tracker", "result": 0.34}
    ]}
  ]
}
